From US10899758B2, “Inhibitors of the menin-MLL interaction” (Vitae Pharmaceuticals, LLC, priority 2016, dated 2021)

Legend:
[1] = tested on: human acute monocytic leukemia cell line MV-4-11; test: Assay 2 (Cell Proliferation Assay), ATP quantitation (CellTiter-Glo); type: cell-based; settings: Homo sapiens, MV4-11, 72 h, MV-4-11 cells, read-out: Assay 2 (EC50, inhibition of cell proliferation)
Method: Potencies of inhibitor compounds against cell proliferation was assessed against the human acute monocytic leukemia cell line MV-4-11 (ATCC® CRL-9591™) based on ATP quantitation. MV-4-11 cells or toxicity control HL-60 cells (ATCC® CCL-240™) were incubated in 96-well tissue culture plates (1.67×10^4 cells in 200 μL culture media containing 10% FBS per well) with or without test compound for 72 h at 37° C., 5% CO2. After incubation, each well was mixed by pipetting and 95 μL from each well was transferred to a well in 96-well black OptiPlate® plates (PerkinElmer). An equal volume of CellTiter-Glo® Luminescent Cell Viability Assay reagent (Promega) was added to each well, followed by mixing for 5 min on an orbital plate shaker. Luminescence was measured on a Wallac EnVision 2104 Multilabel Reader (PerkinElmer) to quantitate ATP. Percent inhibition of cell proliferation by test compounds was calculated based on uninhibited cell growth (DMSO) versus cells treated with a potent menin inhibitor at a concentration yielding at least 100×LD50.

[2] = biological target: T1, menin/MLL binding (biotinylated wild-type or mutated menin and MLL-AF9 fusion protein) (Homo sapiens, UniProt O00255); test: Assay 1 (Binding Assay): AlphaLISA menin/MLL binding; settings: 5 nM biotinylated menin, MLL-AF9-FLAG lysate
T1 construct: biotinylated (1) wild-type menin or (2) mutated menin (described in Nature (2012) Vol. 482, pp. 542-548); fused on or other part: Biotin attached chemically (Sulfo-NHS-Biotin); no fused second protein is printed for menin
T1 sequence (O00255 1-459 limits assumed): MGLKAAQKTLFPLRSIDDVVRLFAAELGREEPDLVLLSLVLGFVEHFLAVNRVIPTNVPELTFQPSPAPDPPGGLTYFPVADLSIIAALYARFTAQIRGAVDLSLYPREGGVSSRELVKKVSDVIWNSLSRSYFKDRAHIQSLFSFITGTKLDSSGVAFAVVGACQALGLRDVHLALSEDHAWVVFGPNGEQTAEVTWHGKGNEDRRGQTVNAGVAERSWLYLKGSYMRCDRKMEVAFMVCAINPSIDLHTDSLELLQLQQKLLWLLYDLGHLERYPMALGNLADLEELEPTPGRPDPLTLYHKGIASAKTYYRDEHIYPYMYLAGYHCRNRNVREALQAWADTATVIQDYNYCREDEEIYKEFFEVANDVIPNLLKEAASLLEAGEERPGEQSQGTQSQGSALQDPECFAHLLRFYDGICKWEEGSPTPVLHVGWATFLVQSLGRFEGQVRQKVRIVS
How it was run: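 Biotinylated E. coli-expressed menin (wild-type or mutant), 5 nM, incubated 30 min RT with compound and HEK293 lysate of MLL1-1,396–AF9-FLAG in pH 7.4 Tris buffer, 5% DMSO, 1 mM DTT. Anti-FLAG acceptor and streptavidin donor beads added, 60 min RT, AlphaLISA signal read. IC50 from four-parameter fit of % inhibition.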

SMILES	EC50 [1]	IC50 [2]
CC(C)N(C)C(=O)c1cc(F)ccc1-n1cc([C@H]2CC[C@H](N3CCCCC3)CC2)c2ccncc21 [Example 106, 5-fluoro-N-isopropyl-N-methyl-2-(3-(trans-4-(piperidin-1-yl)cyclohexyl)-1H-pyrrolo[2,3-c]pyridin-1-yl)benzamide]	100 to 1000 nM	< 100 nM
CC(C)N(C)C(=O)c1cc(F)ccc1-n1cc([C@H]2CC[C@H](N3CCC[C@H]3CO)CC2)c2ccncc21 [Example 96, 5-fluoro-2-(3-(trans-4-((S)-2-(hydroxymethyl)pyrrolidin-1-yl)cyclohexyl)-1H-pyrrolo[2,3-c]pyridin-1-yl)-N-isopropyl-N-methylbenzamide]	100 to 1000 nM	< 100 nM
CC(C)N(C)C(=O)c1cc(F)ccc1-n1cc(C2CCCN(C[C@H]3CC[C@H](NS(C)(=O)=O)CC3)CC2)c2ccncc21 (relative stereo) [Example 41, 5-fluoro-N-isopropyl-N-methyl-2-(3-(1-((trans-4-(methylsulfonamido)cyclohexyl)methyl)azepan-4-yl)-1H-pyrrolo[2,3-c]pyridin-1-yl)benzamide]	< 100 nM	< 100 nM
CC(C)N(C)C(=O)c1cc(F)ccc1-n1cc([C@H]2CC[C@H](N3CCC(F)(F)CC3)CC2)c2ccncc21 [Example 110, 2-(3-(trans-4-(4,4-difluoropiperidin-1-yl)cyclohexyl)-1H-pyrrolo[2,3-c]pyridin-1-yl)-5-fluoro-N-isopropyl-N-methylbenzamide]	100 to 1000 nM	< 100 nM
CC(C)N(C)C(=O)c1cc(F)ccc1-n1cc(C2CCC(N(C)CC3CCC(NS(C)(=O)=O)CC3)CC2)c2ccncc21 (single isomer, unassigned) [Example 128, 5-fluoro-N-isopropyl-N-methyl-2-(3-(4-(methyl((4-(methylsulfonamido)cyclohexyl)methyl)amino)cyclohexyl)-1H-pyrrolo[2,3-c]pyridin-1-yl)benzamide]	< 100 nM	< 100 nM
Cc1c(CN2CCC(c3cn(-c4ccc(F)cc4CC(C)C)c4cnccc34)CC2)ccc2[nH]c(C#N)cc12 [Example 42, 5-((4-(1-(4-fluoro-2-isobutylphenyl)-1H-pyrrolo[2,3-c]pyridin-3-yl)piperidin-1-yl)methyl)-4-methyl-1H-indole-2-carbonitrile]	100 to 1000 nM	< 100 nM
CC(C)N(C)C(=O)c1cc(F)ccc1-n1cc(C2CCN(CCC3CCOCC3)CC2)c2ccncc21 [Example 6, 5-fluoro-N-isopropyl-N-methyl-2-(3-(1-(2-(tetrahydro-2H-pyran-4-yl)ethyl)piperidin-4-yl)-1H-pyrrolo[2,3-c]pyridin-1-yl)benzamide]	100 to 1000 nM	< 100 nM
Fc1ccc(CN2CCC(c3cn(-c4ccc(F)cc4OCC4CC4)c4cnccc34)CC2)cc1 [Example 35, 1-(2-(cyclopropylmethoxy)-4-fluorophenyl)-3-(1-(4-fluorobenzyl)piperidin-4-yl)-1H-pyrrolo[2,3-c]pyridine]	–	< 100 nM
CC(C)N(C)C(=O)c1cc(F)ccc1-n1cc(C2CCC(O)CC2)c2ccncc21 (single isomer, unassigned) [Example 53A, 5-fluoro-2-(3-(4-hydroxycyclohexyl)-1H-pyrrolo[2,3-c]pyridin-1-yl)-N-isopropyl-N-methylbenzamide]	–	≥ 1000 nM
CC(C)N(C)C(=O)c1cc(F)ccc1-n1cc(C2CCC(N3CCNC(=O)C3)CC2)c2ccncc21 (stereo not drawn) [Example 116, 5-fluoro-N-isopropyl-N-methyl-2-(3-(4-(3-oxopiperazin-1-yl)cyclohexyl)-1H-pyrrolo[2,3-c]pyridin-1-yl)benzamide]	–	100 to 1000 nM
CC(C)N(C)C(=O)c1cc(F)ccc1-n1cc(C2CCN(C(=O)OC(C)(C)C)CC2)c2ccncc21 [Int. 1, tert-butyl 4-(1-(4-fluoro-2-(isopropyl(methyl)carbamoyl)phenyl)-1H-pyrrolo[2,3-c]pyridin-3-yl)piperidine-1-carboxylate]	–	100 to 1000 nM
